Data published in ChEMBL document CHEMBL4725284, “Junceellolide B, a novel inhibitor of Hepatitis B virus” (Bioorg Med Chem, 2020).
Active and inactive are the calls of the source. The calls are words filed in the database; no cut-off is given here.

Experiments:
Hepatitis B virus [1] = experiment: Antiviral activity against HBV infected in human HuH7 cells transfected with luciferase reporter plasmid assessed as repression of HBV basal core promoter at 0.25 to 10 uM incubated for 48 hrs by luciferase assay; assay type: functional, organism-based; conditions: Huh-7, dose microM 0.25-10, time 48.0 hrs
Hepatitis B virus [2] = experiment: Antiviral activity against HBV infected human HepAD38 cells assessed as decrease in HBV core proteins measured after 4 days by western blot analysis; assay type: functional, organism-based; conditions: dose microM 1.25-10, time 4.0 day
Hepatitis B virus [3] = experiment: Antiviral activity against HBV infected in doxycycline-induced human HepG2-NTCP cells assessed as reduction in HBsAg secretion in supernatant measured from day 2 to 8 post treatment by time resolved fluoroimmunoassay; assay type: functional, organism-based; conditions: dose microM 2.5-10, time day 2-8
Hepatitis B virus [4] = experiment: Antiviral activity against HBV infected human HepAD38 cells assessed as reduction in HBV cccDNA levels pretreated with tet for 2 days measured after 8 days post treatment with compound by rolling-cycle amplification; assay type: functional, organism-based; conditions: time 10.0 day
Hepatitis B virus [5] = experiment: Antiviral activity against HBV infected in human HepAD38 cells assessed as inhibition of viral DNA incubated for 4 days by SYBR green dye based RT-PCR analysis; assay type: functional, organism-based; conditions: HePAD38, 96 h
Hepatitis B virus [6] = experiment: Antiviral activity against HBV infected human HepAD38 cells assessed as decrease in reverse-transcripted ssDNA treated with tet and LAM followed by addition of compound by southern blot analysis; assay type: functional, organism-based; conditions: dose microM 1.25-10, time 4.0 day
Hepatitis B virus [7] = experiment: Antiviral activity against HBV infected human HepAD38 cells assessed as inhibition of pgRNA at 10 uM in absence of tet followed by treating with compound after 24 hrs measured after 4 days by RT-qPCR analysis; assay type: functional, organism-based; conditions: time 4.0 day
Hepatitis B virus [8] = experiment: Antiviral activity against HBV infected in human HepAD38 cells assessed as inhibition of viral DNA at 10 uM incubated for 4 days by SYBR green dye based RT-PCR analysis relative to control; assay type: functional; conditions: HePAD38, 96 h, time 4 day
Hepatitis B virus [9] = experiment: Antiviral activity against HBV infected human HepAD38 cells assessed as inhibition of precRNA at 10 uM in absence of tet followed by treating with compound after 24 hrs measured after 4 days by RT-qPCR analysis; assay type: functional, organism-based; conditions: time 4.0 day
Hepatitis B virus [10] = experiment: Antiviral activity against HBV infected in doxycycline-induced human HepG2-NTCP cells assessed as reduction in HBeAg secretion in supernatant measured from day 2 to 8 post treatment by time resolved fluoroimmunoassay; assay type: functional, organism-based; conditions: dose microM 2.5-10, time day 2-8
[11] = Downregulation of ZBTB7B in HBV infected human HepAD38 cells assessed as inhibitory rate at 10 uM in absence of tet incubated with compound for 4 days followed by RNA extraction with trizol reagent and measured by qRT-PCR analysis relative to control; assay type: functional; conditions: Hepatitis B virus, HePAD38, 96 h, time 4 day
[12] = Cytotoxicity against human HePAD38 cells assessed as cell viability incubated for 72 hrs by MTT assay; assay type: cell-based
Hepatitis B virus [13] = experiment: Antiviral activity against HBV infected human HepAD38 cells assessed as inhibition of total HBV RNA at 10 uM in absence of tet followed by treating with compound after 24 hrs measured after 4 days by RT-qPCR analysis; assay type: functional, organism-based; conditions: time 4.0 day
Hepatitis B virus [14] = experiment: Antiviral activity against HBV infected human HepAD38 cells assessed as reduction in HBV RNA levels preincubated with compound for 4 days measured after 4 days by RT-PCR analysis; assay type: functional, organism-based
Hepatitis B virus [15] = experiment: Antiviral activity against HBV infected human HepAD38 cells assessed as reduction in HBeAg secretion preincubated with compound for 4 days measured after 4 days by […] analysis; assay type: functional, organism-based
Hepatitis B virus [16] = experiment: Antiviral activity against HBV infected in human HuH7 cells transfected with luciferase reporter plasmid assessed as repression of HBV enhancer I at 0.25 to 10 uM incubated for 48 hrs by luciferase assay; assay type: functional, organism-based; conditions: Huh-7, dose microM 0.25-10, time 48.0 hrs
Hepatitis B virus [17] = experiment: Antiviral activity against HBV infected human HepAD38 cells assessed as degradation of HBV RNA; assay type: functional, organism-based
Hepatitis B virus [18] = experiment: Antiviral activity against HBV infected human HepAD38 cells assessed as decrease in DP-rcDNA levels pretreated with tet for 2 days measured after 8 days post treatment with compound by southern blot analysis; assay type: functional, organism-based; conditions: time 10.0 day
Hepatitis B virus [19] = experiment: Antiviral activity against HBV infected human HepAD38 cells assessed as HBV cccDNA degradation in presence of tet and LAM at 10 uM obtained up to 8 days post treatment by rolling cycle amplification; assay type: functional, organism-based; conditions: time day <=8
Hepatitis B virus [20] = experiment: Antiviral activity against HBV infected in human HuH7 cells assessed as reduction in the expression of viral mRNA at 10 uM incubated for 4 days by FPKM analysis; assay type: functional, organism-based; conditions: Huh-7, time 4.0 day
[21] = Downregulation of ZBED6 in HBV infected human HepAD38 cells assessed as inhibition rate at 10 uM in absence of tet incubated with compound for 4 days followed by RNA extraction with trizol reagent measured by qRT-PCR analysis relative to control; assay type: functional; conditions: Hepatitis B virus, HePAD38, 96 h, time 4 day
Hepatitis B virus [22] = experiment: Antiviral activity against HBV infected human HepAD38 cells assessed as decrease in HBV cccDNA levels pretreated with tet for 2 days measured after 8 days post treatment with compound by southern blot analysis; assay type: functional, organism-based; conditions: time 10.0 day
Hepatitis B virus [23] = experiment: Antiviral activity against HBV infected human HepAD38 cells assessed as decrease in reverse-transcripted rcDNA treated with tet and LAM followed by addition of compound by southern blot analysis; assay type: functional, organism-based; conditions: dose microM 1.25-10, time 4.0 day
Hepatitis B virus [24] = experiment: Antiviral activity against HBV infected human HepAD38 cells assessed as reduction in HBV DNA levels preincubated with compound for 4 days measured after 4 days by RT-PCR analysis; assay type: functional, organism-based
[25] = Cytotoxicity against human HepG2 cells assessed as cell viability incubated for 72 hrs by MTT assay; assay type: cell-based
Hepatitis B virus [26] = experiment: Antiviral activity against HBV infected human HepAD38 cells assessed as inhibition of 3.5 kb RNA at 10 uM in absence of tet followed by treating with compound after 24 hrs measured after 4 days by northern blot analysis; assay type: functional, organism-based; conditions: time 4.0 day

With `C=C1CC[C@H](OC(C)=O)[C@]2(C)[C@@H](OC(C)=O)/C=C/C(=C)[C@H](Cl)[C@@H]3OC(=O)[C@H](C)[C@@]3(O)[C@@H](OC(C)=O)[C@@H]12` the Activity (Hepatitis B virus [1]) was “Active”, the Activity (Hepatitis B virus [2]) was “Dose-dependent effect” and the Activity (Hepatitis B virus [3]) was “Dose-dependent effect”. For the same compound, the Activity (Hepatitis B virus [4]) was “Active”, the EC50 (Hepatitis B virus [5]) was 0.83 µM and the Activity (Hepatitis B virus [6]) was “Dose-dependent effect”. The inhibition (Hepatitis B virus [7]) was “Active”, the inhibition at 10 µM (Hepatitis B virus [8]) was 64% and the inhibition (Hepatitis B virus [9]) was “Active”. For the same compound, the Activity (Hepatitis B virus [10]) was “Dose-dependent effect”, the inhibition at 10 µM [11] was 32% and the CC50 at 72 h [12] was over 100 µM. For the same compound, the inhibition (Hepatitis B virus [13]) was “Active”, the EC50 (Hepatitis B virus [14]) was 2.87 µM and the EC50 (Hepatitis B virus [15]) was 7.75 µM. For the same compound, the Activity (Hepatitis B virus [16]) was “Active”, the Activity (Hepatitis B virus [17]) was “inactive” and the Activity (Hepatitis B virus [18]) was “Active”. For the same compound, the Activity (Hepatitis B virus [19]) was “inactive”, the Activity (Hepatitis B virus [20]) was “Active” and the inhibition at 10 µM [21] was 28%. For the same compound, the Activity (Hepatitis B virus [22]) was “Active”, the Activity (Hepatitis B virus [23]) was “Dose-dependent effect” and the EC50 (Hepatitis B virus [24]) was 0.83 µM. For the same compound, the CC50 at 72 h [25] was over 100 µM and the inhibition (Hepatitis B virus [26]) was “Active”.
With `C=C1/C=C/[C@H](OC(C)=O)[C@@]2(C)[C@@H](OC(C)=O)CC[C@]3(CO3)[C@@H]2[C@H](OC(C)=O)[C@]2(O)[C@@H](C)C(=O)O[C@H]2[C@H]1Cl` [JUNCEELLOLIDE C] the EC50 (Hepatitis B virus [5]) was 5.19 µM, the inhibition at 10 µM (Hepatitis B virus [8]) was 63% and the CC50 at 72 h [12] was over 100 µM. For the same compound, the CC50 at 72 h [25] was over 100 µM.
In the case of `C=C1CC[C@H](OC(C)=O)[C@]2(C)[C@@H](OC(C)=O)C[C@@H](OC(C)=O)C(=C)[C@H](Cl)[C@@H]3OC(=O)[C@H](C)[C@@]3(O)[C@@H](OC(C)=O)[C@@H]12`, the inhibition at 10 µM (Hepatitis B virus [8]) is reported as 63%, the CC50 at 72 h [12] is reported as over 100 µM and the CC50 at 72 h [25] is reported as over 100 µM.
With `C=C1CC[C@H](OC(C)=O)[C@]2(C)[C@@H](OC(C)=O)/C=C/C(COC(C)=O)=C\[C@@H]3OC(=O)[C@H](C)[C@@]3(O)[C@@H](OC(C)=O)[C@@H]12` the inhibition at 10 µM (Hepatitis B virus [8]) was 0%, the CC50 at 72 h [12] was over 100 µM and the CC50 at 72 h [25] was over 100 µM.
In the case of `C=C1CC[C@H](OC(=O)CC(C)C)[C@]2(C)[C@@H](OC(C)=O)C[C@@H](OC(C)=O)/C(C)=C\[C@@H]3OC(=O)[C@H](C)[C@@]3(O)[C@@H](OC(C)=O)[C@@H]12`, the inhibition at 10 µM (Hepatitis B virus [8]) is reported as 0%, the CC50 at 72 h [12] is reported as over 100 µM and the CC50 at 72 h [25] is reported as over 100 µM.
For `C=C1CC[C@H](OC(C)=O)[C@]2(C)[C@@H](OC(C)=O)C[C@@]3(O)O[C@@]4([C@H](C=C3CO)OC(=O)[C@@H]4C)[C@@H](OC(C)=O)[C@@H]12`, the inhibition at 10 µM (Hepatitis B virus [8]) was 0%, the CC50 at 72 h [12] was over 100 µM and the CC50 at 72 h [25] was over 100 µM.
`C=C1/C=C/[C@H](OC(=O)CC)[C@@]2(C)[C@@H](OC(C)=O)CC[C@]3(CO3)[C@@H]2[C@H](OC(C)=O)[C@]2(O)[C@@H](C)C(=O)O[C@H]2[C@H]1Cl` gave an EC50 (Hepatitis B virus [5]) of 0.81 µM, an inhibition at 10 µM (Hepatitis B virus [8]) of 75% and a CC50 at 72 h [12] of over 100 µM. For the same compound, the CC50 at 72 h [25] was over 100 µM.
